Experimental data: paper PMC9329436, “Optimization of the 4-anilinoquin(az)oline scaffold as epidermal growth factor receptor (EGFR) inhibitors for chordoma utilizing a toxicology profiling assay platform” (Scientific Reports, 2022)
Read-outs that look alike come from different tables or passages of the source.

Tests used:
Assay type in all cases: biochemical
[1] = target: 320 wild-type protein kinases (Homo sapiens, UniProt P17252); conditions: PKC-alpha, singlicate
Source text: (§1) Table S4. Profiling of two compounds at two concentrations against 320 wild-type protein kinases; singlicate measurement; Residual activities (% of control).

[2] = target: 320 wild-type protein kinases (Homo sapiens, UniProt P24941); conditions: singlicate
Source text: as §1

[3] = target: 320 wild-type protein kinases (Homo sapiens, UniProt P34947); conditions: singlicate
Source text: as §1

[4] = target: 320 wild-type protein kinases (Homo sapiens, UniProt P51812); conditions: kinase RPS6KA3, singlicate
Source text: as §1

[5] = target: T1, 320 wild-type protein kinases (Homo sapiens, UniProt Q12851); conditions: singlicate
T1 sequence (Q12851 1-820): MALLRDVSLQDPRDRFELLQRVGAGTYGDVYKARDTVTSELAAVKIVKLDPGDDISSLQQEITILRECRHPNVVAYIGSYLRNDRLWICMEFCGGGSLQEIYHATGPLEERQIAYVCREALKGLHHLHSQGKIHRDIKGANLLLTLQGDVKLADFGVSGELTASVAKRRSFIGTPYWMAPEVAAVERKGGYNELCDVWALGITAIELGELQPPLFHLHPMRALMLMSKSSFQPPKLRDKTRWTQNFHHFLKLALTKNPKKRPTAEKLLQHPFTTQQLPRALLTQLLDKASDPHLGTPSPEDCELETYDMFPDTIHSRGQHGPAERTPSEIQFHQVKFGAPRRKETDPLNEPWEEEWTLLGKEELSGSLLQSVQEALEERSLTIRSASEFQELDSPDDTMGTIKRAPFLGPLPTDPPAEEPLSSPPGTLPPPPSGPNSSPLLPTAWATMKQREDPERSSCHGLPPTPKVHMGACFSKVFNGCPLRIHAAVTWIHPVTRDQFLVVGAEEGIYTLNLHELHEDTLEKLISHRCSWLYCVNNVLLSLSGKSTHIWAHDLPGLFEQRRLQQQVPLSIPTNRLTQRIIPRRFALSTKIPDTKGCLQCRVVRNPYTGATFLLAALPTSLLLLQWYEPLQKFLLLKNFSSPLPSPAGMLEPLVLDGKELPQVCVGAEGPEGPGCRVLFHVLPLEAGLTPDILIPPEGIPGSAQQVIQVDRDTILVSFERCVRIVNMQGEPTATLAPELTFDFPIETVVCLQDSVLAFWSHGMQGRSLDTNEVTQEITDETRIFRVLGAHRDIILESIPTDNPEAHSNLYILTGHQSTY
Source text: as §1

[6] = target: 320 wild-type protein kinases (Homo sapiens, UniProt Q13233); conditions: singlicate
320 wild-type protein kinases (Homo sapiens, UniProt Q13233), sequence (Q13233 whole entry): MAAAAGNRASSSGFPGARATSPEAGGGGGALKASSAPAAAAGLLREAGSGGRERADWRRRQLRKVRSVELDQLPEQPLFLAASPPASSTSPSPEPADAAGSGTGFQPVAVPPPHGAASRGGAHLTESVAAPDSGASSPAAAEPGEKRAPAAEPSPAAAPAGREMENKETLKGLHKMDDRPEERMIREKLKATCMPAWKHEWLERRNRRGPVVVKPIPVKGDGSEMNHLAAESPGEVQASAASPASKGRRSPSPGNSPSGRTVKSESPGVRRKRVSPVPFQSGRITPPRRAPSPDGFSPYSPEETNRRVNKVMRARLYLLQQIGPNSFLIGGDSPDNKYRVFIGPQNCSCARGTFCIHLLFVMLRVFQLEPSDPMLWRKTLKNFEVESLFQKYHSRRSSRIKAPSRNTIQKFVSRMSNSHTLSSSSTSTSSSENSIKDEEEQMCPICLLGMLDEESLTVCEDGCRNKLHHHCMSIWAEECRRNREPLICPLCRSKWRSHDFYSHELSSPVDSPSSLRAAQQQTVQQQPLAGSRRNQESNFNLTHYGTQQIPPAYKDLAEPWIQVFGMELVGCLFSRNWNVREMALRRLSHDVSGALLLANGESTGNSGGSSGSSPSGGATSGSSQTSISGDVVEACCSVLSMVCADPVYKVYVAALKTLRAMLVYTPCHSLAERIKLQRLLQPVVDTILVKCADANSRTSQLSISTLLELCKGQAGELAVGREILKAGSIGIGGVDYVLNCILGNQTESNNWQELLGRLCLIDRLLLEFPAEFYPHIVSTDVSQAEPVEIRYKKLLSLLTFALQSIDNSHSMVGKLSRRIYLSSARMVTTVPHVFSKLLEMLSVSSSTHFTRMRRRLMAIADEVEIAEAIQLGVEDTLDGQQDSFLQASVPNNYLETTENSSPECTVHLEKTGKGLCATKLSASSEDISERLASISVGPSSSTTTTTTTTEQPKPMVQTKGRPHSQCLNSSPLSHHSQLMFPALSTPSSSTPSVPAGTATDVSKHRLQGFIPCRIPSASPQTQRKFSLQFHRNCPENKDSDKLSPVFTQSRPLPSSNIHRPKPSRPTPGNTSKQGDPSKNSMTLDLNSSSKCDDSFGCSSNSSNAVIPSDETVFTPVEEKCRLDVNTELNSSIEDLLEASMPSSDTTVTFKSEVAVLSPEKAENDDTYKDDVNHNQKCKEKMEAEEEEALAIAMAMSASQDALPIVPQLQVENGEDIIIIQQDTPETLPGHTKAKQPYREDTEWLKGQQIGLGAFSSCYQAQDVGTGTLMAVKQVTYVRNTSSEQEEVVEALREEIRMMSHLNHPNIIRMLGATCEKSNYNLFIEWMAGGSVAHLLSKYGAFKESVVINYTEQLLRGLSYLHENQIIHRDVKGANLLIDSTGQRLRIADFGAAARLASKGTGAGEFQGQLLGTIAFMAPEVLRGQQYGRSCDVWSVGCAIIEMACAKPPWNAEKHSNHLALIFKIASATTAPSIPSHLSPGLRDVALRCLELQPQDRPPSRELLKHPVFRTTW
Source text: as §1

[7] = target: T2, 320 wild-type protein kinases (Homo sapiens, UniProt Q15139); conditions: PKC-mu, singlicate
T2 sequence (Q15139 1-912): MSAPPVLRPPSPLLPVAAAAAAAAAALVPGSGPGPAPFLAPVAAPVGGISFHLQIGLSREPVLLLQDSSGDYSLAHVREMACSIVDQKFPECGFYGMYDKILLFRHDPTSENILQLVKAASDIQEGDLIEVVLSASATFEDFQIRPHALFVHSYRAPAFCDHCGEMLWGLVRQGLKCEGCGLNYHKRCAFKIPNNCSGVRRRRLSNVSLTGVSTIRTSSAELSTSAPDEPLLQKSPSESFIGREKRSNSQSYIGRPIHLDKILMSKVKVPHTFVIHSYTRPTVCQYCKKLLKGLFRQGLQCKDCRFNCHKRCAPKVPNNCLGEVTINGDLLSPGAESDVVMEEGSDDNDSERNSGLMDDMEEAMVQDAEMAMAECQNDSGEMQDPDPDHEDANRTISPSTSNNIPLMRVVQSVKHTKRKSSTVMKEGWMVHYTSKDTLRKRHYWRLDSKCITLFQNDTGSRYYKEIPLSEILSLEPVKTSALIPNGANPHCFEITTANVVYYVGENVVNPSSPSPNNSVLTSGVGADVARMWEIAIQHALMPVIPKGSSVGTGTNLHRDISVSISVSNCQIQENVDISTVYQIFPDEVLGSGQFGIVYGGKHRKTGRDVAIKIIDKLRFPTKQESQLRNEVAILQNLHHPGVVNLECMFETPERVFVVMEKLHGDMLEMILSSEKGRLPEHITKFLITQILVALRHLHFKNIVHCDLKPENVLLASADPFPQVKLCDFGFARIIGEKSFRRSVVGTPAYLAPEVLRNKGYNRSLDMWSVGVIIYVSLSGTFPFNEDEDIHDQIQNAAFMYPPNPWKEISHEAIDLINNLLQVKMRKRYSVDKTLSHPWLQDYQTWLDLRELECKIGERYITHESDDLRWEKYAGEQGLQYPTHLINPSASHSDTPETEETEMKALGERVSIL
Source text: as §1

[8] = target: 320 wild-type protein kinases (Homo sapiens, UniProt Q16513); conditions: singlicate
320 wild-type protein kinases (Homo sapiens, UniProt Q16513), sequence (Q16513 whole entry): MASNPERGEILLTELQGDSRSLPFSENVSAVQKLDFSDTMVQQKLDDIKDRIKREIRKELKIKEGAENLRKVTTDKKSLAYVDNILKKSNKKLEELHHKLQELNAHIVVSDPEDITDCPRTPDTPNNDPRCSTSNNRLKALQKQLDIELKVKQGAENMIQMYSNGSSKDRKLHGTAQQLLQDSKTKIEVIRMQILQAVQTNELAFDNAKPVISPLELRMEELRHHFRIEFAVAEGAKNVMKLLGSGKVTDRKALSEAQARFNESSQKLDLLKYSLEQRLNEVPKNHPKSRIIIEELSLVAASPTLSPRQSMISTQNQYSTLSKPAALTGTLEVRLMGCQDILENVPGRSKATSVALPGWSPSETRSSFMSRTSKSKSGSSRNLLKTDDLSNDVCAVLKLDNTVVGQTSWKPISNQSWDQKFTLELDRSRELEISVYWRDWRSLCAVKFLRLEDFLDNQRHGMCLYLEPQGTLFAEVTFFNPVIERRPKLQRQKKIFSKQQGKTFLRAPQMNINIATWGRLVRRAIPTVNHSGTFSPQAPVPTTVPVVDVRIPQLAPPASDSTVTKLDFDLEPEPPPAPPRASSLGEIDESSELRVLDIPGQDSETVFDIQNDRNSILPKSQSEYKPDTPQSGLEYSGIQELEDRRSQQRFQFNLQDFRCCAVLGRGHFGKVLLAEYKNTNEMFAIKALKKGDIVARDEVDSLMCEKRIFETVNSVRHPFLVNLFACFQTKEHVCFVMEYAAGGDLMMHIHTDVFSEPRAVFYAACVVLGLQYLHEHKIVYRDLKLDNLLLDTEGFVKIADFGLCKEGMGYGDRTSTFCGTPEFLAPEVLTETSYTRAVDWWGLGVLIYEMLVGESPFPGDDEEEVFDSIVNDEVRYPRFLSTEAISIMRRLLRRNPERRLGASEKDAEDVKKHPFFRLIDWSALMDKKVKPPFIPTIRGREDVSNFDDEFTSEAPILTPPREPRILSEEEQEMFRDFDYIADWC
Source text: as §1

[9] = target: 320 wild-type protein kinases (Homo sapiens, UniProt Q9BYP7); conditions: kinase WNK3, singlicate
320 wild-type protein kinases (Homo sapiens, UniProt Q9BYP7), sequence (Q9BYP7 whole entry): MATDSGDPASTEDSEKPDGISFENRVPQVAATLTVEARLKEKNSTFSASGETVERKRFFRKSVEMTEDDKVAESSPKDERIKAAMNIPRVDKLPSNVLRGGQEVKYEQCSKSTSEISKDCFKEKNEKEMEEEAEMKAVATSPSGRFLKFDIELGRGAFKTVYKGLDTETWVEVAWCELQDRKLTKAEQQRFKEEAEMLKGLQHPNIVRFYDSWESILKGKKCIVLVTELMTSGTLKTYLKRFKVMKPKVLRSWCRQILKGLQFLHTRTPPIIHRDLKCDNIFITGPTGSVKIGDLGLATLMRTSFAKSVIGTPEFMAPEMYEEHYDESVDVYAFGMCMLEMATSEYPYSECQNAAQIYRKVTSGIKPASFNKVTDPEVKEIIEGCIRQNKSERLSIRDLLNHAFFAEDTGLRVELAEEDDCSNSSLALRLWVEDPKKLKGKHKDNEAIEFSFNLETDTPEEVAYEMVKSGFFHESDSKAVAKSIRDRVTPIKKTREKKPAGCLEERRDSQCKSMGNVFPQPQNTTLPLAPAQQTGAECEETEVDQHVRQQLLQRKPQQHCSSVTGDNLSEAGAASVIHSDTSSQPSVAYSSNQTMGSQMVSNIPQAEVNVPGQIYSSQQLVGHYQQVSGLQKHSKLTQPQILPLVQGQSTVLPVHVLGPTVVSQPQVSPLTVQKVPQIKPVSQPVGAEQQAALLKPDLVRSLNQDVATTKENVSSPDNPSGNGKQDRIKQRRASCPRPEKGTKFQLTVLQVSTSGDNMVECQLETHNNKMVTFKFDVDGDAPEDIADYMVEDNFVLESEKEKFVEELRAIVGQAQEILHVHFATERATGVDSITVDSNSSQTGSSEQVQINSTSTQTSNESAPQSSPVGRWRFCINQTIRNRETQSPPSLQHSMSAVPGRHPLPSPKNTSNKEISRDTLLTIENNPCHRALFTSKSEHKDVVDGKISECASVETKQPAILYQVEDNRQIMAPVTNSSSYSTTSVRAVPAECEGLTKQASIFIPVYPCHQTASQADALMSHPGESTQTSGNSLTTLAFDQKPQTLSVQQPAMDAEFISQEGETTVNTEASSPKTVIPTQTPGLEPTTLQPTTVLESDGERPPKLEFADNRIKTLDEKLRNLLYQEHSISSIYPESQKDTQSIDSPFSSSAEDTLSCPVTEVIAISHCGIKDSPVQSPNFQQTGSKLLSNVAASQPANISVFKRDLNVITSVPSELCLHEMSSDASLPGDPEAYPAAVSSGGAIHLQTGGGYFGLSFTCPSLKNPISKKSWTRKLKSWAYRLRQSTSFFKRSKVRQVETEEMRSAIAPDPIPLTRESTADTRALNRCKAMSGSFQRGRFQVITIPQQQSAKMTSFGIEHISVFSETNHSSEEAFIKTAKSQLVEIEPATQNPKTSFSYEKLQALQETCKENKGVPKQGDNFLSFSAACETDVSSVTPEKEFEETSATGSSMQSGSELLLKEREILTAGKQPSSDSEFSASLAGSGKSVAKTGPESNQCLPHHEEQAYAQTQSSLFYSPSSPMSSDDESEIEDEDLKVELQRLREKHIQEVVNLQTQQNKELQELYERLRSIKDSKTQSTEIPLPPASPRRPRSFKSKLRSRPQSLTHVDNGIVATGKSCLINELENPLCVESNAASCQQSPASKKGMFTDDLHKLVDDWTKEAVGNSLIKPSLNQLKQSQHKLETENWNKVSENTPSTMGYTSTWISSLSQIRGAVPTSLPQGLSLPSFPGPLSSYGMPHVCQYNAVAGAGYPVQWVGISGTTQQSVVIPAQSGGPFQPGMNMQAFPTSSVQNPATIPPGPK
Source text: as §1

SMILES | Residual activity ([1]; 1.0E-06 M) | Residual activity ([1]; 1.0E-07 M) | Residual activity ([2]; CDK2/CycA2, 1.0E-06 M) | Residual activity ([2]; CDK2/CycA2, 1.0E-07 M) | Residual activity ([2]; CDK2/CycE1, 1.0E-06 M) | Residual activity ([2]; CDK2/CycE1, 1.0E-07 M) | Residual activity ([3]; GRK5, 1.0E-06 M) | Residual activity ([3]; GRK5, 1.0E-07 M) | Residual activity, RPS6KA3 ([4]; assay conc. 1.0E-06 M) | Residual activity, RPS6KA3 ([4]; assay conc. 1.0E-07 M) | Residual activity ([5]; MAP4K2, 1.0E-06 M) | Residual activity ([5]; MAP4K2, 1.0E-07 M) | Residual activity ([6]; MAP3K1, 1.0E-06 M) | Residual activity ([6]; MAP3K1, 1.0E-07 M) | Residual activity ([7]; 1.0E-06 M) | Residual activity ([7]; 1.0E-07 M) | Residual activity ([8]; PRK2, 1.0E-06 M) | Residual activity ([8]; PRK2, 1.0E-07 M) | Residual activity, WNK3 ([9]; assay conc. 1.0E-06 M) | Residual activity, WNK3 ([9]; assay conc. 1.0E-07 M)
C#Cc1cc(Nc2ncnc3cc(I)ccc23)ccc1Cl [Compound 41] | 95 % of control | 86 % of control | 90 % of control | 88 % of control | 76 % of control | 97 % of control | 111 % of control | 108 % of control | 96 % of control | 99 % of control | 94 % of control | 99 % of control | 93 % of control | 96 % of control | 89 % of control | 111 % of control | 88 % of control | 85 % of control | 115 % of control | 118 % of control
C#Cc1cc(Nc2ncnc3cc(OC)c(OC)cc23)ccc1Cl [Compound 45] | 94 % of control | 111 % of control | 97 % of control | 95 % of control | 86 % of control | 91 % of control | 111 % of control | 107 % of control | 115 % of control | 119 % of control | 113 % of control | 105 % of control | 96 % of control | 96 % of control | 73 % of control | 92 % of control | 95 % of control | 92 % of control | 105 % of control | 124 % of control
